Experimental data: patent US7771931B2, “Methods for diagnosing and treating diseases and conditions associated with protein kinase Cλ” (The General Hospital Corporation, priority 2001, dated 2010)

Legend:
PKCλ = experiment: Antisense morpholino injection into zebrafish embryos; format: in vivo; conditions: injected into 1-4 cell embryos
Procedure: An antisense morpholino oligonucleotide of sequence 5′-[…]-3′ (SEQ ID NO:6) (GeneTools, LLC) was dissolved at a concentration of […] in 1× Danieau's buffer (5 mM Hepes pH 7.6, 58 mM NaCl, 0.7 mM KCl, 0.6 mM Ca (NO3)2, 0.4 mM MgSO4). One nL of this solution or 1× Danieau's buffer was injected into each 1-4 cell embryo before allowing the embryos to develop at 28.50° C.

yeast = experiment: Rate of proliferation of yeast; format: cell-based
mammalian cells = experiment: Bromodeoxyuridine incorporation in mammalian cells; format: cell-based
zebrafish embryos [1] = experiment: Retina histology of treated zebrafish embryos (hematoxylin-eosin, dapi); format: in vivo; conditions: concentramide-treated embryos
From the text: (§1) Fixed embryos were dehydrated, embedded in plastic (JB4, Polysciences, Inc.), and sectioned at 2-7 μm. Retinal sections were stained with hematoxylin-eosin or dapi.

zebrafish embryos [2] = experiment: Kidney epithelium of treated zebrafish embryos (apical marker 3G8); format: in vivo; conditions: embryos exposed to concentramide
Procedure: (§2) Digoxigenin-labeled antisense RNA probes were generated by ill vitro transcription for cmlc2 (Yelon et al., supra), vmhc (Yelon et al., supra), and pax2.1 (Krauss et al., Development 113:1193-1206, 1991). In situ hybridization was carried out as described (Oxtoby et al., Nucleic Acids Res. 21:1087-1095, 1993). For whole-mount immunohistochemistry, embryos were fixed in 4% paraformaldehyde in phosphate-buffered saline (S46 and 3G8) or 80% methanol, 20% dimethyl sulfoxide (α-ZO-1), permeablized in acetone for 30 minutes at −20° C. (3G8), blocked with 5% fetal bovine serum, and incubated with the antibodies S46, 3G8 (Vize et al., Dev. Biol. 171:531-540, 1995), or α-ZO-1. An anti-mouse-horseradish peroxidase conjugate was used as secondary antibody for S46 and 3G8, and an Alexa 488-labeled anti-mouse secondary antibody was used for α-ZO-1 staining.
as §1

C. elegans embryo = experiment: Early development of the C. elegans embryo (par-2::GFP strain KK871); format: in vivo; conditions: 34 μM concentramide
Procedure: C. eleganis strain KK871 (par-2::GFP) was maintained at 25° C. For each sample, 10-15 adult worms were soaked in 80 μL M9 medium containing 34 μM concentramide, 0.25% dimethyl sulfoxide for 30-60 minutes. Worms were then cut open with a scalpel, and embryos were mounted on 2% agarose pads with coverslips. Embryos were allowed to develop at 25° C. before being photographed live.

zebrafish embryos [3] = experiment: Anterior-posterior patterning by in situ hybridization (Pax2.1, cmlc2), 18-somite zebrafish embryos; format: in vivo
Procedure: as §2

zebrafish embryos [4] = experiment: Fusion order of heart primordia (cmlc2 expression, 16- and 18-somite stages); format: in vivo
Procedure: as §2

zebrafish embryos [5] = experiment: Small molecule treatment of developing zebrafish embryos, visual inspection of heart patterning
From the text: Visual inspection of the transparent embryos was used to identify small molecules that affect the global patterning of the heart.

Q: How did the “phenotype of injected embryos compared with has mutation” value (PKCλ) turn out when “5′-CTGTCCCGCAGCGTGGGCATTATGG-3′ (all phosphorodiamidate morpholino (PMO)) [antisense morpholino oligomers]” was run?
A: phenocopy the mutation entirely

Q: Which results are given for `CCCCCc1ccc(-c2ccc(/C=C/C(N)=O)cc2)nc1` [concentramide]?
A: effect on rate of proliferation of yeast (yeast): no effect; effect on bromodeoxyuridine incorporation (mammalian cells): no effect; defects in cell polarity, RPE continuity, or lamination of the retina (zebrafish embryos [1]): do not exhibit defects; irregular epithelial cell shapes and gaps between cells in the kidney (zebrafish embryos [2]): did not observe these defects; Par2 localization (C. elegans embryo): retain proper localization of Par2 to the posterior pole; asymmetry of first cell division (C. elegans embryo): normally asymmetric first cell division; completion of development (C. elegans embryo): fail to complete development; cytokinesis (C. elegans embryo): cytolinetic defects; distance between Pax2.1-expressing cells in the eyes and at the midbrain/hindbrain boundary (zebrafish embryos [3]; 18-somite embryos): reduced; distance between the anterior edge of the cmlc2-expressing field and the anterior extreme of the embryo (zebrafish embryos [3]; 18-somite stage, n=12, wild-type 3.1+/−0.2): 2.2+/−0.3 arbitrary units; fusion of posterior ends of the heart field (zebrafish embryos [4]): failure to merge the posterior ends; phenotype at 6 μM compared with 6 nM (zebrafish embryos [5]; 6 μM versus 6 nM): virtually the same phenotype; brain development (zebrafish embryos [5]; concentramide-treated embryos): develop abnormally; heart phenotype of exposed embryos (zebrafish embryos [5]; embryos exposed to concentramide): compact hearts that do not sustain a circulation; cell death (zebrafish embryos [5]; general cytotoxicity): no increase in cell death is apparent; development relative to untreated siblings (zebrafish embryos [5]; general cytotoxicity): not delayed; stage before which concentramide must be present to induce the concentric chamber morphology (zebrafish embryos [5]; more precise staging, approximately 15 hpf): < 14 somite stage; potency on specific molecular target versus other proteins affecting visible developmental processes (zebrafish embryos [5]; same phenotype at 6 μM and 6 nM): at least 1,000 times; heart morphology at 24 hpf (zebrafish embryos [5]; treated after 17 hpf): wild-type heart morphology; heart morphology at 24 hpf (zebrafish embryos [5]; treated at any time prior to 14 hpf): concentric chamber morphology; brain and heart phenotype with timed treatment (zebrafish embryos [5]; treated between 9 and 14 hpf, concentric heart chamber phenotype preserved): eliminates this brain defect
